Values after ≈ are worked out from the molar mass of the structure shown.
system: Candida albicans; test: Antifungal activity against Candida albicans after 12 hrs by agar dilution method; format: functional

Row | Compound | MIC [µM]
1 | Oc1nc(Cc2ccccc2)nc2ccccc12 | 10.6 (≈ 2.5 µg/mL)
2 | CCCC[C@@H](CC)c1nc2ccccc2c(=O)[nH]1 | 2.5 (≈ 0.611 µg/mL)
3 | CCCC[C@H](CC)c1nc2ccccc2c(=O)[nH]1 | 1.3 (≈ 0.318 µg/mL)
4 | Cc1nc2ccccc2c(=O)[nH]1 | 15.6 (≈ 2.5 µg/mL)
5 | CC(=O)N1CCN(c2ccc(OCC3COC(Cn4ccnc4)(c4ccc(Cl)cc4Cl)O3)cc2)CC1 (centres undefined) [KETOCONAZOLE] | 0.2 (≈ 0.106 µg/mL)

More lines, now with the values ahead:

Row | MIC [µM] | Compound
6 | 2.5 | CCCC[C@@H](CC)C1NC(=O)c2ccccc2N1 (mixture of isomers)
7 | 5 | CCCC[C@H](CC)C1NC(=O)c2ccccc2N1 (mixture of isomers)
8 | 10.2 (≈ 2.49 µg/mL) | CCCCC(CC)c1nc2ccccc2c(=O)[nH]1 (racemic)
9 | 10.1 (≈ 2.49 µg/mL) | CCCCC(CC)C1NC(=O)c2ccccc2N1 (racemic)

— ChEMBL document CHEMBL1795220, “Antifungal quinazolinones from marine-derived Bacillus cereus and their preparation” (2011)
